Experimental data: patent US10611750B2, “Tetrahydroquinoline compositions as bet bromodomain inhibitors” (FORMA Therapeutics, Inc., priority 2013, dated 2020)
Each block holds one compound with its values, some of them ahead of it.

Columns and labels:
[1] = molecular target: T1, BRD4 Bromodomain 1 (BRD4 BD1) (Homo sapiens, UniProt O60885); assay: AlphaScreen binding assay, BRD4 BD1; details: His-tagged BRD4 BD1 50 nM, biotinylated H4 (1-21) K5/8/12/16 tetra-acetylated peptide 50 nM, compounds listed under IC50 range headings
T1 construct: 44-168 and BRD4 BD2
Method in brief: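 An AlphaScreen competition format was used with His-BRD4 BD1 or BD2 and biotin-H4 K5/8/12/16-acetyl peptide, each at matched final levels of 50 nM (BD1) or 100 nM (BD2). Incubation in HEPES/NaCl buffer with 0.1% BSA and 0.01% Triton X-100 ran ≥1 h before IC50 determination.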

[2] = test system: acute myelocytic leukemia (AML) cell line MV4-11; assay: Oncology cell growth assay (3-day proliferation, CellTiter-Glo); format: cell-based; details: Homo sapiens, MV4-11, 72 h, MV4-11 cells, 3000 cells/well, compounds listed under IC50 range headings, read-out: MV411 IC50 (gIC50, inhibition of proliferation)
Method in brief: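 Compounds were serially diluted 3-fold in DMSO, giving final well concentrations from 10 down to 0.0045 μM. MV4-11 cells were then seeded at 3000 cells/well in RPMI 1640 with 10% FBS and incubated 72 hours. CellTiter-Glo signal was measured and gIC50 obtained by four-parameter logistic regression.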

SMILES: C[C@H]1CCc2c(ccc(-c3cnoc3)c2Oc2ccccc2)N1C(=O)C1CC1 [I-231, (S)-cyclopropyl(6-(isoxazol-4-yl)-2-methyl-5-phenoxy-3,4-dihydroquinolin-1 (2H)-yl)methanone]
IC50 [1]: 1000 to 10000 nM
IC50 [2]: < 500 nM

SMILES: COc1cccc(Oc2c(-c3cn(C)nn3)ccc3c2CC[C@H](C)N3C(=O)C2CC2)c1 [I-234, (S)-cyclopropyl(5-(3-methoxyphenoxy)-2-methyl-6-(1-methyl-1H-1,2,3-triazol-4-yl)-3,4-dihydroquinolin-1 (2H)-yl)methanone]
IC50 [1]: 1000 to 10000 nM
IC50 [2]: < 500 nM

SMILES: C[C@H]1CCc2c(ccc(-c3cn(C)nn3)c2Oc2cccc(F)c2)N1C(=O)C1CC1 [I-235, (S)-cyclopropyl(5-(3-fluorophenoxy)-2-methyl-6-(1-methyl-1H-1,2,3-triazol-4-yl)-3,4-dihydroquinolin-1 (2H)-yl)methanone]
IC50 [1]: 1000 to 10000 nM
IC50 [2]: < 500 nM

SMILES: C[C@H]1CCc2c(Oc3ccccc3)c(-c3cn[nH]c3)cc(F)c2N1C(=O)C1CC1 [I-238, (S)-cyclopropyl(8-fluoro-2-methyl-5-phenoxy-6-(1H-pyrazol-4-yl)-3,4-dihydroquinolin-1(2H)-yl)methanone]
IC50 [1]: 1000 to 10000 nM
IC50 [2]: < 500 nM

SMILES: COC(=O)N1c2c(F)cc(-c3cnn(C4CC4)c3)c(Oc3ccccc3)c2CC[C@@H]1C [I-239, (S)-methyl 6-(1-cyclopropyl-1H-pyrazol-4-yl)-8-fluoro-2-methyl-5-phenoxy-3,4-dihydroquinoline-1(2H)-carboxylate]
IC50 [1]: 1000 to 10000 nM
IC50 [2]: < 500 nM

SMILES: COC(=O)N1c2ccc(C3CC3)c(Oc3ccccc3)c2CC[C@@H]1C [I-244, (S)-methyl 6-cyclopropyl-2-methyl-5-phenoxy-3,4-dihydroquinoline-1(2H)-carboxylate]
IC50 [1]: ≥ 10000 nM
IC50 [2]: > 1000 nM

SMILES: COC(=O)N1c2ccc(-c3cnn(C4CC5CN(C)CC5C4)c3)c(OC3CCC3)c2CC[C@@H]1C (stereo partly drawn) [I-248, (2S)-methyl 5-cyclobutoxy-2-methyl-6-(1-(2-methyl-octahydrocyclopenta[c]pyrrol-5-yl)-1H-pyrazol-4-yl)-3,4-dihydroquinoline-1(2H)-carboxylate]
IC50 [1]: 100 to 1000 nM
IC50 [2]: < 500 nM

SMILES: COC(=O)N1c2ccc(-c3cnn(C4CNC4)c3)c(Oc3cc(F)ccc3F)c2CC[C@@H]1C [I-271, (S)-methyl 6-(1-(azetidin-3-yl)-1H-pyrazol-4-yl)-5-(2,5-difluorophenoxy)-2-methyl-3,4-dihydroquinoline-1(2H)-carboxylate]
IC50 [1]: 100 to 1000 nM
IC50 [2]: < 500 nM

SMILES: C[C@H]1CCc2c(ccc(-c3cnn(C4CNC4)c3)c2Oc2cc(F)ccc2F)N1C(=O)C1CC1 [I-272, (S)-(6-(1-(azetidin-3-yl)-1H-pyrazol-4-yl)-5-(2,5-difluorophenoxy)-2-methyl-3,4-dihydroquinolin-1(2H)-yl)(cyclopropyl)methanone]
IC50 [1]: 100 to 1000 nM
IC50 [2]: < 500 nM

SMILES: COC(=O)N1c2ccc(-c3cnn(C4CCNCC4)c3)c(Oc3cc(F)ccc3F)c2CC[C@@H]1C [I-273, (S)-methyl 5-(2,5-difluorophenoxy)-2-methyl-6-(1-(piperidin-4-yl)-1H-pyrazol-4-yl)-3,4-dihydroquinoline-1(2H)-carboxylate]
IC50 [1]: 100 to 1000 nM
IC50 [2]: < 500 nM

SMILES: C[C@H]1CCc2c(ccc(-c3cnn(C4CCNCC4)c3)c2Oc2cc(F)ccc2F)N1C(=O)C1CC1 [I-274, (S)-cyclopropyl(5-(2,5-difluorophenoxy)-2-methyl-6-(1-(piperidin-4-yl)-1H-pyrazol-4-yl)-3,4-dihydroquinolin-1 (2H)-yl)methanone]
IC50 [1]: 100 to 1000 nM
IC50 [2]: < 500 nM

SMILES: CC(=O)N1c2ccc(-c3cnn(C4CCNCC4)c3)c(Oc3ccc(F)c(F)c3)c2CC[C@@H]1C [I-275, (S)-1-(5-(3,4-difluorophenoxy)-2-methyl-6-(1-(piperidin-4-yl)-1H-pyrazol-4-yl)-3,4-dihydroquinolin-1 (2H)-yl)ethanone]
IC50 [1]: 100 to 1000 nM
IC50 [2]: < 500 nM

SMILES: CC(=O)N1c2ccc(-c3cnn(C4CCNCC4)c3)c(Oc3cc(F)ccc3F)c2CC[C@@H]1C [I-276, (S)-1-(5-(2,5-difluorophenoxy)-2-methyl-6-(1-(piperidin-4-yl)-1H-pyrazol-4-yl)-3,4-dihydroquinolin-1(2H)-yl)ethanone]
IC50 [1]: 100 to 1000 nM
IC50 [2]: < 500 nM

SMILES: C[C@H]1CCc2c(ccc(-c3cnn4c3NCC4)c2OC2CCC2)N1C(=O)C1CC1 [I-278, ((2S)-5-cyclobutoxy-6-(2,3-dihydro-1H-pyrazolo[1,5-a]imidazol-7-yl)-2-methyl-3,4-dihydroquinolin-1(2H)-yl)(cyclopropyl)methanone]
IC50 [1]: 100 to 1000 nM
IC50 [2]: < 500 nM

Results, then the compound that gave them:

IC50 [1]: 100 to 1000 nM
IC50 [2]: < 500 nM
SMILES: COC(=O)N1c2ccc(-c3cn(C)nn3)c(Oc3ccccc3)c2CC[C@@H]1C [I-232, (S)-methyl 2-methyl-6-(1-methyl-1H-1,2,3-triazol-4-yl)-5-phenoxy-3,4-dihydroquinoline-1(2H)-carboxylate]

IC50 [1]: 100 to 1000 nM
IC50 [2]: < 500 nM
SMILES: CC(=O)N1c2ccc(-c3cn(C)nn3)c(Oc3ccccc3)c2CC[C@@H]1C [I-233, (S)-1-(2-methyl-6-(1-methyl-1H-1,2,3-triazol-4-yl)-5-phenoxy-3,4-dihydroquinolin-1(2H)-yl)ethanone]

IC50 [1]: 100 to 1000 nM
IC50 [2]: < 500 nM
SMILES: C[C@H]1CCc2c(ccc(-c3cn(C)nn3)c2Oc2ccc(F)cc2)N1C(=O)C1CC1 [I-236, (S)-cyclopropyl(5-(4-fluorophenoxy)-2-methyl-6-(1-methyl-1H-1,2,3-triazol-4-yl)-3,4-dihydroquinolin-1 (2H)-yl)methanone]

IC50 [1]: 100 to 1000 nM
IC50 [2]: < 500 nM
SMILES: COC(=O)N1c2c(F)cc(-c3cn[nH]c3)c(Oc3ccccc3)c2CC[C@@H]1C [I-240, (S)-methyl 8-fluoro-2-methyl-5-phenoxy-6-(1H-pyrazol-4-yl)-3,4-dihydroquinoline-1(2H)-carboxylate]

IC50 [1]: 100 to 1000 nM
IC50 [2]: < 500 nM
SMILES: CC(=O)N1c2c(F)cc(-c3cnn(C4CC4)c3)c(Oc3ccccc3)c2CC[C@@H]1C [I-241, (S)-1-(6-(1-cyclopropyl-1H-pyrazol-4-yl)-8-fluoro-2-methyl-5-phenoxy-3,4-dihydroquinolin-1(2H)-yl)ethanone]

IC50 [1]: 100 to 1000 nM
IC50 [2]: < 500 nM
SMILES: CC(=O)N1c2c(F)cc(-c3cn[nH]c3)c(Oc3ccccc3)c2CC[C@@H]1C [I-242, (S)-1-(8-fluoro-2-methyl-5-phenoxy-6-(1H-pyrazol-4-yl)-3,4-dihydroquinolin-1(2H)-yl)ethanone]

IC50 [1]: 100 to 1000 nM
IC50 [2]: < 500 nM
SMILES: C[C@H]1CCc2c(ccc(C3CC3)c2Oc2ccccc2)N1C(=O)C1CC1 [I-243, (S)-cyclopropyl(6-cyclopropyl-2-methyl-5-phenoxy-3,4-dihydroquinolin-1 (2H)-yl) methanone]

IC50 [1]: 100 to 1000 nM
IC50 [2]: < 500 nM
SMILES: COC(=O)N1c2ccc(-c3cnn(C4CC5CN(C)CC5C4)c3)c(Oc3ccc(F)cc3)c2CC[C@@H]1C (stereo partly drawn) [I-250, (2S)-methyl 5-(4-fluorophenoxy)-2-methyl-6-(1-(2-methyl-octahydrocyclopenta[c]pyrrol-5-yl)-1H-pyrazol-4-yl)-3,4-dihydroquinoline-1(2H)-carboxylate]

IC50 [1]: 100 to 1000 nM
IC50 [2]: < 500 nM
SMILES: C[C@H]1CCc2c(ccc(-c3cnn(C4CCNCC4)c3)c2Oc2ccccc2F)N1C(=O)C1CC1 [I-260, (S)-cyclopropyl(5-(2-fluorophenoxy)-2-methyl-6-(1-(piperidin-4-yl)-1H-pyrazol-4-yl)-3,4-dihydroquinolin-1(2H)-yl)methanone]

IC50 [1]: 100 to 1000 nM
IC50 [2]: < 500 nM
SMILES: COC(=O)N1c2ccc(-c3cnn(C4CNC4)c3)c(Oc3ccccc3F)c2CC[C@@H]1C [I-261, (S)-methyl 6-(1-(azetidin-3-yl)-1H-pyrazol-4-yl)-5-(2-fluorophenoxy)-2-methyl-3,4-dihydroquinoline-1(2H)-carboxylate]

IC50 [1]: 100 to 1000 nM
IC50 [2]: < 500 nM
SMILES: C[C@H]1CCc2c(ccc(-c3cnn(C4CCNCC4)c3)c2Oc2ccc(F)cc2F)N1C(=O)C1CC1 [I-264, (S)-cyclopropyl (5-(2,4-difluorophenoxy)-2-methyl-6-(1-(piperidin-4-yl)-1H-pyrazol-4-yl)-3,4-dihydroquinolin-1 (2H)-yl)methanone]

IC50 [1]: 100 to 1000 nM
IC50 [2]: < 500 nM
SMILES: C[C@H]1CCc2c(ccc(-c3cnn(C4CNC4)c3)c2Oc2ccc(F)cc2F)N1C(=O)C1CC1 [I-265, (S)-(6-(1-(azetidin-3-yl)-1H-pyrazol-4-yl)-5-(2,4-difluorophenoxy)-2-methyl-3,4-dihydroquinolin-1(2H)-yl)(cyclopropyl)methanone]

IC50 [1]: 100 to 1000 nM
IC50 [2]: < 500 nM
SMILES: COC(=O)N1c2ccc(-c3cnn(C4CNC4)c3)c(Oc3ccc(F)cc3F)c2CC[C@@H]1C [I-266, (S)-methyl 6-(1-(azetidin-3-yl)-1H-pyrazol-4-yl)-5-(2,4-difluorophenoxy)-2-methyl-3,4-dihydroquinoline-1(2H)-carboxylate]

IC50 [1]: 100 to 1000 nM
IC50 [2]: < 500 nM
SMILES: C[C@H]1CCc2c(ccc(-c3cnn(C4CCNCC4)c3)c2Oc2cccc(F)c2F)N1C(=O)C1CC1 [I-267, (S)-cyclopropyl(5-(2,3-difluorophenoxy)-2-methyl-6-(1-(piperidin-4-yl)-1H-pyrazol-4-yl)-3,4-dihydroquinolin-1(2H)-yl)methanone]

IC50 [1]: 100 to 1000 nM
IC50 [2]: < 500 nM
SMILES: COC(=O)N1c2ccc(-c3cnn(C4CCNCC4)c3)c(Oc3cccc(F)c3F)c2CC[C@@H]1C [I-269, (S)-methyl 5-(2,3-difluorophenoxy)-2-methyl-6-(1-(piperidin-4-yl)-1H-pyrazol-4-yl)-3,4-dihydroquinoline-1(2H)-carboxylate]
